This is an account of results in patent publication US20220033397A1, “PHARMACEUTICAL COMPOUNDS AND THEIR USE AS INHIBITORS OF UBIQUITIN SPECIFIC PROTEASE 19 (USP19)” (ALMAC DISCOVERY LIMITED, priority 2018, published 2022).

The target of the experiment is T1, Full-length USP19 (Homo sapiens, UniProt O94966).
T1 construct: Full-length USP19 was purchased from Boston Biochem (E-576); purchased Boston Biochem E-576
T1 sequence (O94966 1-1318): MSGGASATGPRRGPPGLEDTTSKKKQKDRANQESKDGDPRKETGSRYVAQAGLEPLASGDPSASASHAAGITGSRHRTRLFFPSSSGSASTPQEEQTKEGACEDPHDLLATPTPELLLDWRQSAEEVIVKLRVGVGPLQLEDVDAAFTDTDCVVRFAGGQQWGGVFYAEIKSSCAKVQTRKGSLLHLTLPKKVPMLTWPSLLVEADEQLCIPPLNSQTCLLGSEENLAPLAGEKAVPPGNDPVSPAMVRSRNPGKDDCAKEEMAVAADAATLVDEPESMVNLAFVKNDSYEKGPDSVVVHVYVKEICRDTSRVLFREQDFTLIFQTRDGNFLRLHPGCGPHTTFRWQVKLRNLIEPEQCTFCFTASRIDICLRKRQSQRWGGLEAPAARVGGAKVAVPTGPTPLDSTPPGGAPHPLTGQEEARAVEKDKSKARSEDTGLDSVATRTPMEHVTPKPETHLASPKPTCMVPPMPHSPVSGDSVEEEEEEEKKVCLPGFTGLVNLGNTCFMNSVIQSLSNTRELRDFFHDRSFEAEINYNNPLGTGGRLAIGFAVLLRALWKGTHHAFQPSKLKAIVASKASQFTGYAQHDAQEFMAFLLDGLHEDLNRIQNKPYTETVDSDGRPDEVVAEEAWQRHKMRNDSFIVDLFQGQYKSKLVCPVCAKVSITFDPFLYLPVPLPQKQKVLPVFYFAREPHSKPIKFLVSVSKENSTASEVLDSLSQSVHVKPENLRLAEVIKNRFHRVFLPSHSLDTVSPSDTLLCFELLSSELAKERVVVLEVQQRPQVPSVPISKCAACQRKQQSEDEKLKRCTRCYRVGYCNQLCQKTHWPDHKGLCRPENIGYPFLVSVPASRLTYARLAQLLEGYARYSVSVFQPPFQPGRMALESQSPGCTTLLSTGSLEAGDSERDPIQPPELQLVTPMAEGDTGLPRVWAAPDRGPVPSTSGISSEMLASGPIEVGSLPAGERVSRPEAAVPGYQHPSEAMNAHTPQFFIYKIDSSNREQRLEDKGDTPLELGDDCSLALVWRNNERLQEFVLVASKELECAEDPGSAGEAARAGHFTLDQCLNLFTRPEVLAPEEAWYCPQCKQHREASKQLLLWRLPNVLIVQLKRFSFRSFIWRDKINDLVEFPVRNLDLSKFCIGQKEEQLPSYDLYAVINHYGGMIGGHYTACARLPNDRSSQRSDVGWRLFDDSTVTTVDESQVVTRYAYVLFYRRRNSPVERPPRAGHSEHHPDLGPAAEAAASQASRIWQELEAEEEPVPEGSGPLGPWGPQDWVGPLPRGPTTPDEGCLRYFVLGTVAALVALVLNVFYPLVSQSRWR
Briefly: USP19 fluorescence polarisation (FP) homogeneous assay with Ubiquitin-Lys-TAMRA substrate. Type of experiment: biochemical. To be noted: 2.5 nM USP19, 30 min pre-incubation, average of at least two duplicate experiments. On the procedure: Unless otherwise stated, all other reagents were purchased from Sigma. Enzymatic reactions were conducted in black flat bottom polystyrene 384-well plates (Nunc) and 30 μL total volume. […] Inhibitors were stored as 10 mM DMSO stocks in an inert environment (low humidity, dark, low oxygen, room temperature) using the Storage Pod System and serial dilutions were prepared in buffer just prior to the assay (from 200 μM to 2 μM, 8-18 data point curve).
Following incubation at RT for 30 min, the enzymatic reactions were initiated by dispensing the Ub substrate (500 nM, 10 μL). FP was measured every 15 min over a period of 90 min (within the linear range of the assay) using a Synergy 4 plate reader (BioTek) exciting at 530 nm and measuring the amount of parallel and perpendicular light at 575 nm. The FP signal was subsequently normalised to the no compound control.
For orientation: Fluorescence polarisation rises when a labelled molecule tumbles more slowly, as on binding a larger partner.

Each structure is given as a SMILES string.

What is called IC50 is the concentration that inhibits the measured activity by half. For the compound `C[C@H](CC1CCCCC1)C(=O)N1CCC(O)(CN2CCN(c3ccccc3)CC2=O)C2(CCCC2)C1` (stereo partly drawn) [Example 50, 1-((7-((R)-3-Cyclohexyl-2-methylpropanoyl)-10-hydroxy-7-azaspiro[4.5]decan-10-yl)methyl)-4-phenylpiperazin-2-one], the IC50 is less than 500 nM.
Turning to `C[C@H](CC1CCCCC1)C(=O)N1CCC(O)(Cn2nc3ccccn3c2=O)C(C)(C)C1` (stereo partly drawn) [Example 51, 2-((1-((R)-3-Cyclohexyl-2-methylpropanoyl)-4-hydroxy-3,3-dimethylpiperidin-4-yl)methyl)-[1,2,4]triazolo[4,3-a]pyridin-3(2H)-one], the IC50 is 5000 to 50000 nM.
The value for `COc1cc2ncn(CC3(O)CCN(C(=O)[C@H](C)CC4CCCCC4)CC34CCCC4)c(=O)c2cc1OC` (stereo partly drawn) [Example 52, 3-((7-((R)-3-Cyclohexyl-2-methylpropanoyl)-10-hydroxy-7-azaspiro[4.5]decan-10-yl)methyl)-6,7-dimethoxyquinazolin-4(3H)-one] was 500 to 5000 nM; that for `C[C@H](CC1CCCCC1)C(=O)N1CCC(O)(Cn2cnc3[nH]ccc3c2=O)C2(CCCC2)C1` (stereo partly drawn) [Example 53, 3-((7-((R)-3-Cyclohexyl-2-methylpropanoyl)-10-hydroxy-7-azaspiro[4.5]decan-10-yl)methyl)-3,7-dihydro-4H-pyrrolo[2,3-d]pyrimidin-4-one] was 5000 to 50000 nM.
Take `CSc1ncc2c(=O)n(CC3(O)CCN(C(=O)[C@H](C)CC4CCCCC4)CC34CCCC4)n(C)c2n1` (stereo partly drawn) [Example 54, 2-((7-((R)-3-Cyclohexyl-2-methylpropanoyl)-10-hydroxy-7-azaspiro[4.5]decan-10-yl)methyl)-1-methyl-6-(methylthio)-1,2-dihydro-3H-pyrazolo[3,4-d]pyrimidin-3-one]: the IC50 was less than 500 nM.
The value for `CSc1ncc2c(=O)n(CC3(O)CCN(C(=O)[C@H](C)CC4CCCCC4)CC34CCCC4)ccc2n1` (stereo partly drawn) [Example 55, 6-((7-((R)-3-Cyclohexyl-2-methylpropanoyl)-10-hydroxy-7-azaspiro[4.5]decan-10-yl)methyl)-2-(methylthio)pyrido[4,3-d]pyrimidin-5(6H)-one] was less than 500 nM; that for `CSc1ncc2c(=O)n(CC3(O)CCN(C(=O)[C@H](C)CC(F)(F)F)CC34CCCC4)ccc2n1` (stereo partly drawn) [Example 56, 6-((10-Hydroxy-7-((R)-4,4,4-trifluoro-2-methylbutanoyl)-7-azaspiro[4.5]decan-10-yl)methyl)-2-(methylthio)pyrido[4,3-d]pyrimidin-5(6H)-one] was less than 500 nM.
The value for `CNc1ncc2c(=O)n(CC3(O)CCN(C(=O)[C@H](C)CC(F)(F)F)CC34CCCC4)ccc2n1` (stereo partly drawn) [Example 57, 6-((10-Hydroxy-7-((R)-4,4,4-trifluoro-2-methylbutanoyl)-7-azaspiro[4.5]decan-10-yl)methyl)-2-(methylamino)pyrido[4,3-d]pyrimidin-5(6H)-one] was 500 to 5000 nM.
With `C[C@H](CC(F)(F)F)C(=O)N1CCC(O)(Cn2ccc3nc(N(C)C)ncc3c2=O)C2(CCCC2)C1` (stereo partly drawn) [Example 58, 2-(Dimethylamino)-6-((10-hydroxy-7-((R)-4,4,4-trifluoro-2-methylbutanoyl)-7-azaspiro[4.5]decan-10-yl)methyl)pyrido[4,3-d]pyrimidin-5(6H)-one], the IC50 fell in the range of 500 to 5000 nM.
As for `COc1ncc2c(=O)n(CC3(O)CCN(C(=O)[C@H](C)CC(F)(F)F)CC34CCCC4)ccc2n1` (stereo partly drawn) [Example 59, 6-((10-Hydroxy-7-((R)-4,4,4-trifluoro-2-methylbutanoyl)-7-azaspiro[4.5]decan-10-yl)methyl)-2-methoxypyrido[4,3-d]pyrimidin-5(6H)-one], the IC50 was 5000 to 50000 nM.
Take `C[C@H](CC(F)(F)F)C(=O)N1CCC(O)(Cn2ccc3nc(N4CCOCC4)ncc3c2=O)C2(CCCC2)C1` (stereo partly drawn) [Example 60, 6-((10-Hydroxy-7-((R)-4,4,4-trifluoro-2-methylbutanoyl)-7-azaspiro[4.5]decan-10-yl)methyl)-2-morpholinopyrido[4,3-d]pyrimidin-5(6H)-one]: the IC50 lay in the range of 500 to 5000 nM.
For `C[C@H](CC(F)(F)F)C(=O)N1CCC(O)(Cn2ccc3nc(N4CCN(C)CC4)ncc3c2=O)C2(CCCC2)C1` (stereo partly drawn) [Example 61, 6-((10-Hydroxy-7-((R)-4,4,4-trifluoro-2-methylbutanoyl)-7-azaspiro[4.5]decan-10-yl)methyl)-2-(4-methylpiperazin-1-yl)pyrido[4,3-d]pyrimidin-5(6H)-one], the IC50 lay within 500 to 5000 nM.
The result for `C[C@H](CC(F)(F)F)C(=O)N1CCC(O)(Cn2ccc3nc(N=S(C)(C)=O)ncc3c2=O)C2(CCCC2)C1` (stereo partly drawn) [Example 62, 2-((Dimethyl(oxo)-λ^6-sulfaneylidene)amino)-6-((10-hydroxy-7-((R)-4,4,4-trifluoro-2-methylbutanoyl)-7-azaspiro[4.5]decan-10-yl)methyl)pyrido[4,3-d]pyrimidin-5(6H)-one] reads 500 to 5000 nM.
For `C[C@H](CC(F)(F)F)C(=O)N1CCC(O)(Cn2ccc3nc(N4CCNCC4)ncc3c2=O)C2(CCCC2)C1` (stereo partly drawn) [Example 63, 6-((10-Hydroxy-7-((R)-4,4,4-trifluoro-2-methylbutanoyl)-7-azaspiro[4.5]decan-10-yl)methyl)-2-(piperazin-1-yl)pyrido[4,3-d]pyrimidin-5(6H)-one], the IC50 fell in the range of 500 to 5000 nM.
The result for `CSc1ncc2c(=O)n(CC3(O)CCN(C(=O)[C@H](C)CC(F)(F)F)CC34CCCC4)n(C)c2n1` (stereo partly drawn) [Example 64, 2-((10-Hydroxy-7-((R)-4,4,4-trifluoro-2-methylbutanoyl)-7-azaspiro[4.5]decan-10-yl)methyl)-1-methyl-6-(methylthio)-1,2-dihydro-3H-pyrazolo[3,4-d]pyrimidin-3-one] reads 500 to 5000 nM; that for `C[C@H](CC1CCCCC1)C(=O)N1CCC(O)(Cn2cc(S(C)(=N)=O)c(Cl)cc2=O)C(C)(C)C1` (stereo partly drawn) [Example 67, 4-Chloro-1-((1-((R)-3-cyclohexyl-2-methylpropanoyl)-4-hydroxy-3,3-dimethylpiperidin-4-yl)methyl)-5-(S-methylsulfonimidoyl)pyridin-2(1H)-one], 500 to 5000 nM.
Take `C[C@H](CC1CCCCC1)C(=O)N1CCC(O)(Cn2cc(S(C)(=N)=O)c(-c3ccccc3)cc2=O)C(C)(C)C1` (stereo partly drawn) [Example 68, 1-((1-((R)-3-Cyclohexyl-2-methylpropanoyl)-4-hydroxy-3,3-dimethylpiperidin-4-yl)methyl)-5-(S-methylsulfonimidoyl)-4-phenylpyridin-2(1H)-one]: the half-inhibitory concentration (IC50) lay within 500 to 5000 nM.
On to `C[C@H](CC1CCCCC1)C(=O)N1CCC(O)(Cn2cc(N=S(C)(C)=O)c(Cl)cc2=O)C2(CCCC2)C1` (stereo partly drawn) [Example 69, 4-Chloro-1-((7-((R)-3-cyclohexyl-2-methylpropanoyl)-10-hydroxy-7-azaspiro[4.5]decan-10-yl)methyl)-5-((dimethyl(oxo)-λ^6-sulfaneylidene)amino)pyridin-2(1H)-one], for which the IC50 was in the range of 500 to 5000 nM.
For the compound `C[C@H](CC1CCCCC1)C(=O)N1CCC(O)(Cn2cc([S+](C)[O-])c(Cl)cc2=O)C2(CCCC2)C1` (stereo partly drawn) [Example 70, 4-Chloro-1-((7-((R)-3-cyclohexyl-2-methylpropanoyl)-10-hydroxy-7-azaspiro[4.5]decan-10-yl)methyl)-5-(methylsulfinyl)pyridin-2(1H)-one], the IC50 is less than 500 nM.
Take `C[C@H](CC1CCCCC1)C(=O)N1CCC(O)(Cn2cc(S(C)(=N)=O)c(Cl)cc2=O)C2(CCCC2)C1` (stereo partly drawn) [Example 71, 4-Chloro-1-((7-((R)-3-cyclohexyl-2-methylpropanoyl)-10-hydroxy-7-azaspiro[4.5]decan-10-yl)methyl)-5-(S-methylsulfonimidoyl)pyridin-2(1H)-one]: the IC50 is less than 500 nM.
